Reference: ChEMBL document CHEMBL4359853, “Antiproliferative activity of (R)-4'-methylklavuzon on hepatocellular carcinoma cells and EpCAM+/CD133+ cancer stem cells via SIRT1 and Exportin-1 (CRM1) inhibition” (Eur J Med Chem, 2019)
Active and inactive are the calls of the source. The calls are words filed in the database; no cut-off is given here.

Legend:
Hep 3B2 = assay: Cytotoxicity against human Hep3B cells assessed as growth inhibition; assay type: functional, cell-based
HepG2 [1] = assay: Cytotoxicity against human HepG2 cells assessed as reduction in cell viability after 48 to 72 hrs; assay type: functional, cell-based
HepG2 [2] = assay: Induction of apoptosis in human 3D HepG2 spheroids measured after 24 hrs by propidium iodide staining based immunofluorescence microscopy analysis; assay type: functional, cell-based
[3] = molecular target: T1, NAD-dependent protein deacetylase sirtuin-1 (Homo sapiens) (UniProt Q96EB6); assay: Inhibition of human recombinant SIRT1 at 100 uM using FLUOR DE LYS SIRT1, deacetylase as substrate preincubated for 2 mins followed by substrate addition measured after 1 hr in presence of NAD+ by fluorescence assay relative to control
T1 sequence (whole entry): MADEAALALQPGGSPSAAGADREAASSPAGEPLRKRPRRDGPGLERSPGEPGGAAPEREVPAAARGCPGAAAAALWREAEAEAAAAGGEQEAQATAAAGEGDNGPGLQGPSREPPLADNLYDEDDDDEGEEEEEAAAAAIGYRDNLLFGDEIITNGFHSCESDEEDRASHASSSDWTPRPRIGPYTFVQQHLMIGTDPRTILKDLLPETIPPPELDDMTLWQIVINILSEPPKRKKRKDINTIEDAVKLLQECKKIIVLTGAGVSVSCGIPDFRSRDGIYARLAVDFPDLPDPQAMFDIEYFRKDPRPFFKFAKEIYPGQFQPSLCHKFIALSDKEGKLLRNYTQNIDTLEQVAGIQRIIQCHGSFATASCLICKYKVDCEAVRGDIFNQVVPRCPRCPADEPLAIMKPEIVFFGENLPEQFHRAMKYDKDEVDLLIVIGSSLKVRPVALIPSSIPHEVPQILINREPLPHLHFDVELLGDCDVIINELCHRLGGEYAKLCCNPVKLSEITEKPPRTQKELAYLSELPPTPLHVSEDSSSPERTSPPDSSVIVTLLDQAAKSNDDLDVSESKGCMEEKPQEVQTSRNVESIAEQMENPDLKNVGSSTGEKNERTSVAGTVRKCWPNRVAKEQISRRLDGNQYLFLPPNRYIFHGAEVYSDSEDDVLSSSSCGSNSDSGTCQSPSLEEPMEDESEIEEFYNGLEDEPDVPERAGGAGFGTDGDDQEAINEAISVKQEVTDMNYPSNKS

HepG2 [4] = assay: Cytotoxicity against human HepG2 cells assessed as reduction in cell viability measured after 72 hrs by MTT assay; assay type: functional, cell-based; conditions: HepG2, 72 h
[5] = molecular target: Exportin-1 (Homo sapiens) (UniProt O14980); assay: Inhibition of CRM1 in human HuH7 cells assessed as accumulation of RIOK2 in nucleus at 1 and 10 uM measured after 24 hrs by DAPI staining based confocal microscopy analysis; assay type: cell-based
HepG2 [6] = assay: Cytotoxicity against human HepG2 cells assessed as reduction in cell viability measured after 24 hrs by MTT assay; assay type: functional, cell-based; conditions: HepG2, 24 h
HepG2 [7] = assay: Cytotoxicity against human HepG2 cells assessed as reduction in cell viability measured after 48 hrs by MTT assay; assay type: functional, cell-based; conditions: HepG2, 48 h
Huh-7 [8] = assay: Cytotoxicity against human HuH7 cells assessed as reduction in cell viability measured after 72 hrs by MTT assay; assay type: functional, cell-based; conditions: Huh-7, 72 h
Huh-7 [9] = assay: Cytotoxicity against human HuH7 cells assessed as reduction in cell viability measured after 24 hrs by MTT assay; assay type: functional, cell-based; conditions: Huh-7, 24 h
HepG2 [10] = assay: Induction of apoptosis in human 3D HepG2 spheroids at 10 uM measured after 24 hrs by propidium iodide staining based immunofluorescence microscopy analysis; assay type: functional, cell-based
Huh-7 [11] = assay: Cytotoxicity against human HuH7 cells assessed as reduction in cell viability measured after 48 hrs by MTT assay; assay type: functional, cell-based; conditions: Huh-7, 48 h
[12] = molecular target: Exportin-1 (Homo sapiens) (UniProt O14980); assay: Inhibition of CRM1 in human HuH7 cells assessed as accumulation of RIOK2 in nucleus at 0.1 to 10 uM measured after 6 hrs by DAPI staining based confocal microscopy analysis; assay type: cell-based
[13] = molecular target: T1, NAD-dependent protein deacetylase sirtuin-1 (Homo sapiens); assay: Inhibition of human recombinant SIRT1 at 10 uM using FLUOR DE LYS SIRT1, deacetylase as substrate preincubated for 2 mins followed by substrate addition measured after 1 hr in presence of NAD+ by fluorescence assay relative to control

Exportin-1 (Homo sapiens), sequence (O14980 whole entry): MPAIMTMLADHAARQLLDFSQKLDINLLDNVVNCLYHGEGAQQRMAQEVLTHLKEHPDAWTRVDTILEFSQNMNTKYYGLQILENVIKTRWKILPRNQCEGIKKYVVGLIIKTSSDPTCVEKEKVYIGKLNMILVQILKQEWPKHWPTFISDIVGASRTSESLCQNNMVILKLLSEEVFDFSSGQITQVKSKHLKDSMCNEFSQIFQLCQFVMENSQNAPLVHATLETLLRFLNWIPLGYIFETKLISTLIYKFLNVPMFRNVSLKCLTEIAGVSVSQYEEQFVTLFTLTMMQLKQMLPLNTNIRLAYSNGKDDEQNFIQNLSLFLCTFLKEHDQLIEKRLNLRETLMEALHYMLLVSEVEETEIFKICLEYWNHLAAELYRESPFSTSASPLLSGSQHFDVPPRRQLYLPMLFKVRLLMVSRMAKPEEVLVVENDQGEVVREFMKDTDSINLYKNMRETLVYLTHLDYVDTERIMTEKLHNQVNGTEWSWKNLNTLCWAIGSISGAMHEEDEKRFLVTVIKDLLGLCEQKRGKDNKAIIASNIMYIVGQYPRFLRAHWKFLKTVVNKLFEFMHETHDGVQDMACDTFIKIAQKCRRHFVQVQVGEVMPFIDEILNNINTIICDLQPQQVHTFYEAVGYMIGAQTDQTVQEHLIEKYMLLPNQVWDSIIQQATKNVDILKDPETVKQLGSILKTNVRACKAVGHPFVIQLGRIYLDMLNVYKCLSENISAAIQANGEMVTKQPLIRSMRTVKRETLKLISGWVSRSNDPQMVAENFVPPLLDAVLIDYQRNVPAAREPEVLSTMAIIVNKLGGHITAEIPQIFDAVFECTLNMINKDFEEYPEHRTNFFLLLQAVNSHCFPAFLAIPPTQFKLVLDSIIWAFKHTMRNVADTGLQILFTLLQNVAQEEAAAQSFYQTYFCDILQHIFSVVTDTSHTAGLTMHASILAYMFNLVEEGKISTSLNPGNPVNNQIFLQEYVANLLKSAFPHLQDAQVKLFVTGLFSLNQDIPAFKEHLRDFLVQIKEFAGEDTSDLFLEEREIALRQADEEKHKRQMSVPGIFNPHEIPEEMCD

| SMILES | IC50 (Hep 3B2) [nM] | IC50 (HepG2 [1]) [nM] | Activity (HepG2 [2]) | inhibition [3] [%] | IC50 (HepG2 [4]) [nM] | inhibition [5] | IC50 (HepG2 [6]) [nM] | IC50 (HepG2 [7]) [nM] | IC50 (Huh-7 [8]) [nM] | IC50 (Huh-7 [9]) [nM] | Activity (HepG2 [10]) | IC50 (Huh-7 [11]) [nM] | inhibition [12] | inhibition [13] [%] |
| --- | --- | --- | --- | --- | --- | --- | --- | --- | --- | --- | --- | --- | --- | --- |
| O=C1C=CC[C@H](/C=C/c2ccccc2)O1 [GONIOTHALAMIN] | 5400 | 625 to 2500 | Active | – | – | – | – | – | – | – | – | – | – | – |
| O=C1C=CCC(c2cc3c(c4ccccc24)CCCC3)O1 (racemic) | – | – | – | 65 | 100 | Active | 5000 | 625 | 1250 | 5000 | Active | 2500 | Active | 17 |
